Data taken from paper PMC4351682, “Formononetin inhibits enterovirus 71 replication by regulating COX- 2/PGE2 expression” (Virology Journal, 2015).

Legend:
PGE2 = PGE2 release assay (EIA) in EV71-infected SK-N-SH cells; assay type: cell-based; conditions: pretreatment 24 h, formononetin 14.91 μmol/L, pirodavir 1.08 μmol/L, supernatant at 24 h p.i.
Description: Figure 4 Formononetin could inhibit EV71-induced COX-2 expression and PGE 2 production. (A) Formononetin but not pirodavir can reduce the expression of COX-2 induced by EV71 infection. SK-N-SH cells were mock-infected or infected with 480 pfu/well of EV71 (SHZH98) for 2 h. The cells were then treated with formononetin (14.91 μmol/L) and pirodavir (1.08 μmol/L), respectively, for 24 h. The cells were harvested and EV71-VP1 and COX-2 were examined by western blot. (B) Formononetin but not pirodavir can reduce the release of PGE2 stimulated by EV71 infection. SK-N-SH cells were pretreated with formononetin (14.91 μmol/L) or pirodavir (1.08 μmol/L) for 24 h. The cells were infected with 4.8 × 10^5 pfu/well of EV71 (SHZH98). At 24 h p.i., the culture supernatants were harvested for PGE2 release assay. For the detection of PGE2 release, SK–N–SH cells (3 × 10^5 cells/well) were seeded into 24-well culture plates and were incubated for 16 h. And then the cells were serum-deprived for 24 h and incubated with EV71 for the indicated time intervals. When drugs were used, they were added 24 h prior to the application of EV71. After treatment, the supernatants were harvested. The supernatant from each sample was assayed using a PGE2 EIA kit (AMEKO) following the manufacturer’s instruction. […] The absorbance of each well was measured at 450 nm.

EV71 VP1 RNA = assay: One-step qRT-PCR of EV71 VP1 RNA in SK-N-SH cells; assay type: cell-based, enterovirus 71; conditions: EV71 SHZH98 480 pfu/well, 24 h treatment
From the text: (§1) Figure 2 The antiviral effect of formononetin and pirodavir against EV71 in SK-N-SH cells. (A) Formononetin and pirodavir reduced the expression of EV71 VP1 protein in SK-N-SH cells by western blot assay. (B) Formononetin and pirodavir reduced the expression of EV71 VP1 protein in SK-N-SH cells by immunofluorescence assay. Cells were examined using a fluorescence microscopy (×100). (C) Formononetin and pirodavir reduced the expression of EV71 VP1 RNA by one-step qRT-PCR assay. *P < 0.001 ^# P < 0.05.
SK-N-SH cells (9 × 10^5cells/well) were plated into 6-well culture plates for incubation of 16 h. The medium was removed and cells were infected with EV71 (SHZH98) of 480 pfu/well. After 2 h, various concentrations of formononetin were supplemented for incubation of another 24 h. The total RNA of the infected cells was extracted using the RNeasy Mini kit (QIAGEN) according to the manufacturer’s instructions. The one-step qRT-PCR was performed with SuperScript III Platinum SYBR Green One-step RT PCR Kit (Invitrogen) using the ABI 7500 Fast Real-Time PCR system (Applied Biosystems). The mRNA expression of EV71 VP1 was detected with sense primer 5’-[…]-3’ and antisense primer 5’-[…]-3’ targeting a conserved region of the VP1 gene. The β-actin mRNA was detected using sense primers 5’-TGACGGGGT CACCCACA CTGTGCCCATCTA-3’ and antisense primer 5’-CTAGAAGCATTTG CGGTGGACG ATG-3’.

p38 = assay: Western blot of EV71-induced phosphorylation of p38 in SK-N-SH cells; assay type: cell-based; conditions: pretreatment 24 h, formononetin 14.91 μmol/L, pirodavir 1.08 μmol/L, EV71 10 min
Description: (§2) Figure 3 Formononetin but not pirodavir reduces the phosphorylation of ERK (A), p38 (B), and JNK (C) induced by EV71 infection. SK-N-SH cells (9 × 10^5 cells/well) were plated into 6-well culture plates. The cells were then pretreated with formononetin (14.91 μmol/L) and pirodavir (1.08 μmol/L), respectively. After 24 h, the cells were mock-infected or infected with 4.8 × 10^5 pfu/well of EV71 (SHZH98) for 15 min (A), 10 min (B), and 30 min (C), respectively. The cells were harvested and ERK (A) p-ERK (A), p38 (B), p-p38 (B), JNK (C), and p-JNK (C) were detected by western blot.
(§3) Cells were lysed in the M-PER mammalian protein extraction reagent (Thermo, Rockford, IL) containing halt protease inhibitor single-use cocktail (Thermo). The protein concentration was determined by the BCA reagents (Thermo). About 10 μg proteins were denatured and applied to sodium dodecyl sulfate-polyacrylamide gel electrophoresis (SDS-PAGE). The electrophoresis products were transferred to a polyvinyl idenefluoride (PVDF) film and PVDF membranes were then incubated at room temperature with specific primary antibody. After a standard washing, membranes were incubated with horse radish peroxidase (HRP)-labeled secondary antibody. The assay developed using a chemiluminescent substrate. […]

JNK = assay: Western blot of EV71-induced phosphorylation of JNK in SK-N-SH cells; assay type: cell-based; conditions: pretreatment 24 h, formononetin 14.91 μmol/L, pirodavir 1.08 μmol/L, EV71 30 min
Description: as §2, §3

EV71 VP1 protein = assay: Western blot of EV71 VP1 protein in SK-N-SH cells; assay type: cell-based, enterovirus 71; conditions: EV71 SHZH98 infected SK-N-SH cells
From the text: as §1, §3

EV71 (SHZH98) = assay: Time course assay (CPE) in SK-N-SH cells; assay type: cell-based, enterovirus 71; conditions: for Reduction of virus-induced CPE, time course: CPE at 48 h
Description: Figure 1 The chemical structure of formononetin and time course assay. (A) The illustration of the protocol of viral adsorption and treatment with formononetin and pirodavir. SK-N-SH cells were infected with 80 pfu/well of EV71 (SHZH98). Formononetin (9.21 μM) and pirodavir (0.84 μM) was added at the indicated times, respectively. […] The cytopathic effect (CPE) assay was shown. (C) The chemical structure of formononetin.
The antiviral activity of formononetin was examined at different time periods before and after viral infection as shown in Figure 1A. Briefly, cells (3 × 10^4 cells/well) were seeded and incubated for 16 h. The cell monolayer was then infected with EV71 of 80 pfu/well. Different concentrations of formononetin were supplemented into cells following the protocol. Cells were then incubated for another 48 h and assayed with CPE assay.

Compound	EV71-stimulated PGE2 release (PGE2)	Levels of EV71 RNA (RT-qPCR) (EV71 VP1 RNA)	EV71-stimulated phosphorylation of p38 (p38)	EV71-stimulated phosphorylation of JNK (JNK)	Expression of EV71 VP1 protein (western blot) (EV71 VP1 protein)	Reduction of virus-induced CPE, time course: effective time of addition (EV71 (SHZH98); pirodavir 0.84 μM, effective 0–9 h p.i., not before or during the infection)	Reduction of virus-induced CPE, time course (EV71 (SHZH98); formononetin 9.21 μM added at 24 and 12 h before, and 0 to 6 h after EV71 infection)	Reduction of virus-induced CPE, time course (EV71 (SHZH98); formononetin 9.21 μM added at −1, 9, and 12 h of EV71 infection)
CCOC(=O)c1ccc(OCCC2CCN(c3ccc(C)nn3)CC2)cc1 [Pirodavir, reference compound]	not	decrease	not	not	decrease	functioned only after viral infection (0–9 h p.i.)		
COc1ccc(-c2coc3cc(O)ccc3c2=O)cc1 [Formononetin]	attenuated	dose-dependently decreased	significantly attenuated	significantly attenuated	decrease the expression of VP1 protein in a dose dependent manner		able to effectively reduce virus-induced CPE	did not exert this effect
